Experimental data taken from publication PMC12998938, “Neutrophil store-operated Ca^2+ entry: A correctable biomarker of cystic fibrosis lung disease progression” (Journal of cystic fibrosis : official journal of the …, 2025).

How the values were obtained:
[1] = system: Ca2+ influx in non-CF neutrophils; test: Fluo-4 Ca2+ influx across the plasma membrane, non-CF neutrophils; assay type: cell-based, human
Procedure: (§1) Isolated neutrophils were incubated with peptide or vehicle control for 3 h. For the final hour of treatment, cells were loaded with Fluo-4 direct (Thermofisher) for 45 min at 37°C and 15 min at room temperature as described.
(§2) Fig. 3. ELD607 inhibits SOCE in non-CF and CF neutrophils. (A) and (B) Mean changes in fluo-4 fluorescence as a marker of cytoplasmic Ca^2+ levels in non-CF and CF neutrophils respectively before and after stimulation with 1 μM thapsigargin (Tg). Before stimulation, neutrophils were exposed to vehicle (0.1% DMSO in PBS), 10 μM ELD607 or scrambled peptide (control) for 3 h. N = 10 non-CF and 21 CF donors. Stats show ELD607 vs vehicle or scrambled peptide based on color. (C-F) Isolation of ER Ca^2+ release vs Ca^2+ influx across the plasma membrane in non-CF and CF Neutrophils. Neutrophils were stimulated with thapsigargin (1 μM) in the absence of extracellular Ca^2+ to allow the release of Ca^2+ stores to be measured. Extracellular Ca^2+ was then returned so that extracellular Ca^2+ influx could be measured. (C) Mean fold change in Fluo-4 fluorescence during ER store release in non-CF and CF neutrophils. […] (E) Mean fold change in fluo-4 fluorescence during Ca^2+ influx in non-CF and CF neutrophils. […]
(§3) SOCE has 2 phases: release of Ca^2+ from ER stores and Ca^2+ influx from the extracellular space via Ca^2+ channels such as Orai1. […] Once the stores had emptied, extracellular Ca^2+ was reintroduced and Ca^2+ influx was measured (Fig. 3C–F).
(§4) Fluo-4 Ca^2+ assays. […] For global Ca^2+ measurements, baseline fluorescent readings were made for 2 min (1 read every 30 s) using a Tecan Infinite M1000 plate reader (ex 494 em 516 nm, bandwidth 5 nm) before thapsigargin (Sigma-Aldrich) was added and the change in emission was recorded for 10 min (1 read every 30 s). […] Baseline fluo-4 fluorescence was read for 2 min before cell were stimulated with thapsigargin (Tocris). Reads continued for ~5 min before 1.2 mM Ca^2+ was added to the extracellular solution and SOCE was measured for ~10 mins. For analysis, all fluo-4 fluorescence reads are normalized to baseline.

[2] = system: Ca2+ influx in CF neutrophils; test: Fluo-4 Ca2+ influx across the plasma membrane, CF neutrophils; assay type: cell-based, human
Procedure: as §1, §2, §3, §4

[3] = system: Orai3; test: SOCE in triple knockout HEK293T cells transfected with Orai3; assay type: cell-based
Source text: We hypothesized that inhibiting SOCE in CF neutrophils may reduce the secretion of neutrophil elastase and other proteins associated with CF lung disease. To validate ELD607’s specificity for Orai1 over Orai2 and Orai3, we first evaluated ELD607 function in HEK293T cells that had Orai1, Orai2 and Orai3 stably knocked out. […] Next we evaluated ELD607’s ability to inhibit SOCE in non-CF and CF neutrophils.
Supplemental figure 3. […] Dose responses of thapsigargin-induced changes in cytoplasmic Ca^2+ concentrations. These studies were performed in HEK293T where Orai1, Orai2 and Orai3 had been stably knocked down (triple knockout cells, TKO) or in TKO cells that were transiently transfected with Orai1, Orai2 or Orai3 as indicated. All data are from 7-9 replicates per data point from 3 separate experiments.

[4] = system: MRSA-infected mice; set-up: method as in earlier work; details: reduced lung injury, increased survival, ref [21]; cited from earlier work
[5] = system: Orai1; details: cartoon legend; reference not given; cited from earlier work
Source text: Fig. 6. Cartoon of SOCE in neutrophils in the absence (left) and presence (right) of ELD607. Left, activation of Gq-linked GPCRs by appropriate agonists (e.g. ATP) leads to formation of inositol triphosphate (IP3) and ER store Ca^2+ depletion. This in turn causes STIM1 to rapidly aggregate at ER-plasma membrane junctions where it causes Orai1 to activate and aggregate to provide a second, amplifying wave of Ca^2+ which triggers neutrophil degranulation, as well as activating other Ca^2+-dependent processes (not shown). Right, ELD607 binds to Orai1, causing it to be ubiquitinated, internalized ...

VHDIVNMLIRG [ELD607, size-optimized SPLUNC1/α6 peptidomimetic]
attenuation of Ca2+ influx ([1]; non-CF neutrophils (Fig. 3)): markedly attenuated Ca^2+ influx | IC50 ([1]; non-CF, 3 h pre-treatment, 1 μM thapsigargin, extracellular Ca2+ (1.2 mM) returned, 2 donors in triplicate, vs CF p<0.0001): 340 nM | Ca2+ influx relative to non-CF levels ([2]; CF neutrophils, absolute terms): restored Ca^2+ from influx CF neutrophils to non-CF levels | IC50 ([2]; CF, 3 h pre-treatment, 1 μM thapsigargin, extracellular Ca2+ (1.2 mM) returned, 3 donors in triplicate, vs non-CF p<0.0001): 493 nM | sensitivity of SOCE to ELD607 ([3]; TKO + Orai3, thapsigargin, dose response, 7-9 replicates): relatively insensitive | specificity for Orai1: effect on Orai3 ([3]; discussion summary of supplemental figure 3): little effect on Orai2 and Orai3 | neutrophil influx into the lungs [4]: reduces neutrophil influx into the lungs of mice | effect on Orai1 [5]: binds to Orai1, causing it to be ubiquitinated, internalized and degraded
